Test results published in patent publication US8952024B2, “Herbicidal pyrimidone derivatives” (E I du Pont de Nemours and Company, priority 2009, dated 2015).

Tests used:
Format in all cases: in vivo
[1] = test system: large crabgrass (Digitaria sanguinalis); assay: Test A pre-/postemergence plant response; details: for Crabgrass, Large plant response rating: visual injury, 0 to 100 scale (0 no effect, 100 complete control), approx. ten days
In short: (§1)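 Approximately ten days after concurrent pre- and postemergence spraying in a greenhouse, plants were compared with untreated controls and rated visually for injury, 0 = no effect to 100 = complete control. Preemergence spray was directed onto loam/sand soil; postemergence targeted 1–2 leaf seedlings.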

corn (Zea mays) = assay: Test A pre-/postemergence plant response; details: for Corn plant response rating: visual injury, 0 to 100 scale (0 no effect, 100 complete control), approx. ten days
In short: as §1

[2] = test system: morningglory (Ipomoea spp.); assay: Test A pre-/postemergence plant response; details: for Morningglory plant response rating: visual injury, 0 to 100 scale (0 no effect, 100 complete control), approx. ten days
In short: as §1

[3] = test system: giant foxtail (Setaria faberii); assay: Test A pre-/postemergence plant response; details: for Foxtail, Giant plant response rating: visual injury, 0 to 100 scale (0 no effect, 100 complete control), approx. ten days
In short: as §1

[4] = test system: pigweed (Amaranthus retroflexus); assay: Test A pre-/postemergence plant response; details: for Pigweed plant response rating: visual injury, 0 to 100 scale (0 no effect, 100 complete control), approx. ten days
In short: as §1

[5] = test system: barnyardgrass (Echinochloa crus-galli); assay: Test A pre-/postemergence plant response; details: for Barnyardgrass plant response rating: visual injury, 0 to 100 scale (0 no effect, 100 complete control), approx. ten days
In short: as §1

[6] = test system: wheat (Triticum aestivum); assay: Test A pre-/postemergence plant response; details: for Wheat plant response rating: visual injury, 0 to 100 scale (0 no effect, 100 complete control), approx. ten days
In short: as §1

[7] = test system: velvetleaf (Abutilon theophrasti); assay: Test A pre-/postemergence plant response; details: for Velvetleaf plant response rating: visual injury, 0 to 100 scale (0 no effect, 100 complete control), approx. ten days
In short: as §1

[8] = test system: barnyardgrass (Echinochloa crus-galli); assay: Test B flooded paddy test; details: for Plant response rating, Flood, Barnyardgrass: 250 g ai/ha, flooded paddy test, visual rating on 0 to 100 scale (0 no effect, 100 complete control) after 13 to 15 days; for Plant response rating, Barnyardgrass: Flood (flooded paddy test), 13 to 15 days
In short: (§2)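 Rice, umbrella sedge, ducksalad and barnyardgrass were grown to the 2-leaf stage, flooded to 3 cm, and compound was applied directly to the paddy water, with that depth kept throughout. After 13 to 15 days in the greenhouse, plants were visually rated against controls on a 0 (no effect) to 100 (complete control) scale.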

[9] = test system: umbrella sedge (Cyperus difformis); assay: Test B flooded paddy test; details: for Plant response rating, Flood, Sedge, Umbrella: 250 g ai/ha, flooded paddy test, visual rating on 0 to 100 scale (0 no effect, 100 complete control) after 13 to 15 days; for Plant response rating, Sedge, Umbrella: Flood (flooded paddy test), 13 to 15 days
In short: as §2

[10] = test system: ducksalad (Heteranthera limosa); assay: Test B flooded paddy test; details: for Plant response rating, Flood, Ducksalad: 250 g ai/ha, flooded paddy test, visual rating on 0 to 100 scale (0 no effect, 100 complete control) after 13 to 15 days; for Plant response rating, Ducksalad: Flood (flooded paddy test), 13 to 15 days
In short: as §2

rice (Oryza sativa) = assay: Test B flooded paddy test; details: for Plant response rating, Flood, Rice: 250 g ai/ha, flooded paddy test, visual rating on 0 to 100 scale (0 no effect, 100 complete control) after 13 to 15 days; for Plant response rating, Rice: Flood (flooded paddy test), 13 to 15 days
In short: as §2

[11] = Postemergence, 125 g ai/ha, 0 to 100 scale where 0 is no effect and 100 is complete control
[12] = Preemergence, 125 g ai/ha, 0 to 100 scale, 0 = no effect, 100 = complete control
[13] = Preemergence, 500 g ai/ha, 0 to 100 scale, 0 = no effect, 100 = complete control
[14] = 62 g ai/ha, scale of 0 to 100 where 0 is no effect and 100 is complete control
[15] = 125 g ai/ha, scale 0 to 100, 0 is no effect, 100 is complete control
[16] = Flood, 31 g ai/ha, scale 0 to 100 (0 no effect, 100 complete control)

Structure (SMILES): CCc1ccc(-n2c(-c3cccc(F)c3)ncc(C(=O)C3=C(O)CCCC3=O)c2=O)cc1 [Compound 204]
- Plant response rating, Crabgrass, Large [1, 11]: 60
- Crabgrass, Large plant response rating ([1]; Postemergence, 500 g ai/ha): 100
- Plant response rating, Crabgrass, Large [1, 12]: 40
- Plant response rating, Crabgrass, Large [1, 13]: 100
- Plant response rating, Corn (corn (Zea mays); [11]): 0
- Corn plant response rating (corn (Zea mays); Postemergence, 500 g ai/ha): 10
- Plant response rating, Corn (corn (Zea mays); [12]): 20
- Plant response rating, Corn (corn (Zea mays); [13]): 20
- Plant response rating, Morningglory [2, 11]: 30
- Morningglory plant response rating ([2]; Postemergence, 500 g ai/ha): 100
- Plant response rating, Morningglory [2, 12]: 0
- Plant response rating, Morningglory [2, 13]: 80
- Plant response rating, Foxtail, Giant [3, 11]: 30
- Foxtail, Giant plant response rating ([3]; Postemergence, 500 g ai/ha): 100
- Plant response rating, Foxtail, Giant [3, 12]: 20
- Plant response rating, Foxtail, Giant [3, 13]: 90
- Plant response rating, Pigweed [4, 11]: 100
- Pigweed plant response rating ([4]; Postemergence, 500 g ai/ha): 100
- Plant response rating, Pigweed [4, 12]: 100
- Plant response rating, Pigweed [4, 13]: 100
- Plant response rating, Barnyardgrass [5, 11]: 100
- Barnyardgrass plant response rating ([5]; Postemergence, 500 g ai/ha): 100
- Plant response rating, Barnyardgrass [5, 12]: 30
- Plant response rating, Barnyardgrass [5, 13]: 80
- Plant response rating, Wheat [6, 11]: 0
- Wheat plant response rating ([6]; Postemergence, 500 g ai/ha): 40
- Plant response rating, Wheat [6, 12]: 20
- Plant response rating, Wheat [6, 13]: 40
- Plant response rating, Velvetleaf [7, 11]: 100
- Velvetleaf plant response rating ([7]; Postemergence, 500 g ai/ha): 100
- Plant response rating, Velvetleaf [7, 12]: 50
- Plant response rating, Velvetleaf [7, 13]: 90
- Plant response rating, Flood, Barnyardgrass [8]: 60
- Plant response rating, Barnyardgrass [8, 14]: 15
- Plant response rating, Barnyardgrass [8, 15]: 25
- Barnyardgrass plant response rating [8, 16]: 10
- Plant response rating, Flood, Sedge, Umbrella [9]: 95
- Plant response rating, Sedge, Umbrella [9, 14]: 75
- Plant response rating, Sedge, Umbrella [9, 15]: 90
- Sedge, Umbrella plant response rating [9, 16]: 70
- Plant response rating, Flood, Ducksalad [10]: 100
- Plant response rating, Ducksalad [10, 14]: 70
- Plant response rating, Ducksalad [10, 15]: 90
- Ducksalad plant response rating [10, 16]: 50
- Plant response rating, Flood, Rice (rice (Oryza sativa)): 60
- Plant response rating, Rice (rice (Oryza sativa); [14]): 0
- Plant response rating, Rice (rice (Oryza sativa); [15]): 0
- Rice plant response rating (rice (Oryza sativa); [16]): 0

Structure (SMILES): O=C1CCCC(O)=C1C(=O)c1cnc(-c2cccc(Br)c2)n(C2CCCCC2)c1=O [Compound 206]
- Plant response rating, Crabgrass, Large [1, 11]: 60
- Crabgrass, Large plant response rating ([1]; Postemergence, 500 g ai/ha): 100
- Plant response rating, Crabgrass, Large [1, 12]: 10
- Plant response rating, Crabgrass, Large [1, 13]: 60
- Plant response rating, Corn (corn (Zea mays); [11]): 0
- Corn plant response rating (corn (Zea mays); Postemergence, 500 g ai/ha): 0
- Plant response rating, Corn (corn (Zea mays); [12]): 0
- Plant response rating, Corn (corn (Zea mays); [13]): 0
- Plant response rating, Morningglory [2, 11]: 100
- Morningglory plant response rating ([2]; Postemergence, 500 g ai/ha): 100
- Plant response rating, Morningglory [2, 12]: 0
- Plant response rating, Morningglory [2, 13]: 0
- Plant response rating, Foxtail, Giant [3, 11]: 50
- Foxtail, Giant plant response rating ([3]; Postemergence, 500 g ai/ha): 90
- Plant response rating, Foxtail, Giant [3, 12]: 0
- Plant response rating, Foxtail, Giant [3, 13]: 60
- Plant response rating, Pigweed [4, 11]: 90
- Pigweed plant response rating ([4]; Postemergence, 500 g ai/ha): 100
- Plant response rating, Pigweed [4, 12]: 30
- Plant response rating, Pigweed [4, 13]: 80
- Plant response rating, Barnyardgrass [5, 11]: 90
- Barnyardgrass plant response rating ([5]; Postemergence, 500 g ai/ha): 100
- Plant response rating, Barnyardgrass [5, 12]: 0
- Plant response rating, Barnyardgrass [5, 13]: 20
- Plant response rating, Wheat [6, 11]: 0
- Wheat plant response rating ([6]; Postemergence, 500 g ai/ha): 0
- Plant response rating, Wheat [6, 12]: 0
- Plant response rating, Wheat [6, 13]: 0
- Plant response rating, Velvetleaf [7, 11]: 100
- Velvetleaf plant response rating ([7]; Postemergence, 500 g ai/ha): 100
- Plant response rating, Velvetleaf [7, 12]: 0
- Plant response rating, Velvetleaf [7, 13]: 60
- Plant response rating, Flood, Barnyardgrass [8]: 0
- Plant response rating, Barnyardgrass [8, 14]: 0
- Plant response rating, Flood, Sedge, Umbrella [9]: 85
- Plant response rating, Sedge, Umbrella [9, 14]: 60
- Plant response rating, Flood, Ducksalad [10]: 90
- Plant response rating, Ducksalad [10, 14]: 70
- Plant response rating, Flood, Rice (rice (Oryza sativa)): 20
- Plant response rating, Rice (rice (Oryza sativa); [14]): 0
